Laboratory results published in ChEMBL document CHEMBL3877329, “Antiprotozoal glutathione derivatives with flagellar membrane binding activity against T. brucei rhodesiense” (Bioorg Med Chem, 2017).
Active and inactive are the calls of the source. No cut-off for these calls is given here.

System: Trypanosoma brucei brucei
Experiment: Antitrypanosomal activity against Trypanosoma brucei brucei S247 bloodstream forms assessed as circular appearance at 50 uM after 30 to 40 mins by optical microscopic method
Assay type: functional
Conditions: not given

Compound | Activity
COC(=O)CNC(=O)[C@H](CSCc1ccc(Br)cc1)NC(=O)CC[C@H](NC(=O)OCc1ccccc1)C(=O)OC | Active

System: Trypanosoma brucei brucei
Experiment: Antitrypanosomal activity against Trypanosoma brucei brucei S247 bloodstream forms assessed as swirling motion of cell particles at 50 uM after 1 hr by optical microscopic method
Assay type: functional
Conditions: not given

Compound | Activity
COC(=O)CNC(=O)[C@H](CSCc1ccc(Br)cc1)NC(=O)CC[C@H](NC(=O)OCc1ccccc1)C(=O)OC | Active

System: Leishmania donovani
Experiment: Antileishmanial activity against Leishmania donovani MHOM/ET/67/HU3 amastigotes infected in CD1 mouse peritoneal macrophages after 5 days
Assay type: functional
Conditions: not given

Compound | ED50 [µg/mL]
Sodium stibogluconate | 33

Same assay, conditions: MHOM/ET/67/HU3, 120 h, read-out: ED50 (the source's name)

Compound | EC50 [µM]
N[C@@H](CCC(=O)N[C@@H](CSc1ccc([N+](=O)[O-])cc1[N+](=O)[O-])C(=O)NCC(=O)O)C(=O)O | > 30
CCCCOC(=O)CNC(=O)[C@H](CSc1ccc([N+](=O)[O-])cc1[N+](=O)[O-])NC(=O)CC[C@H](NC(=O)CCc1ccccc1)C(=O)OCCCC | > 30
CCCCOC(=O)CNC(=O)[C@H](CSc1ccc([N+](=O)[O-])cc1[N+](=O)[O-])NC(=O)CC[C@H](NC(=O)OC)C(=O)OCCCC | > 30

Continued, values first:

EC50 [µM] | Compound
10.1 | CCCCOC(=O)CNC(=O)[C@H](CSc1ccc([N+](=O)[O-])cc1[N+](=O)[O-])NC(=O)CC[C@H](NC(=O)OC12CC3CC(CC(C3)C1)C2)C(=O)OCCCC
19.9 | CCCCOC(=O)CNC(=O)[C@H](CSc1ccc([N+](=O)[O-])cc1[N+](=O)[O-])NC(=O)CC[C@H](N)C(=O)OCCCC
> 30 | CCCCOC(=O)CNC(=O)[C@H](CSc1ccc([N+](=O)[O-])cc1[N+](=O)[O-])NC(=O)CC[C@H](NC(=O)OCc1ccccc1)C(=O)OCCCC
9.9 | CCCCOC(=O)CNC(=O)[C@H](CSc1ccc([N+](=O)[O-])cc1[N+](=O)[O-])NC(=O)CC[C@H](NC(=O)OC(C)(C)C)C(=O)OCCCC
> 30 | CCCCOC(=O)CNC(=O)[C@H](CSc1ccc([N+](=O)[O-])cc1[N+](=O)[O-])NC(=O)CC[C@H](NC(=O)CC(C)C)C(=O)OCCCC

System: Trypanosoma brucei brucei
Experiment: Antitrypanosomal activity against Trypanosoma brucei brucei S247 bloodstream forms
Assay type: functional
Conditions: read-out: ED50 (the source's name)

Compound | EC50 [µM]
COC(=O)CNC(=O)[C@H](CSCc1ccc(Br)cc1)NC(=O)CC[C@H](NC(=O)OCc1ccccc1)C(=O)OC | 30

System: not listed separately
Experiment: Cytotoxicity against human KB cells after 3 days by fluorometric assay
Assay type: toxicity, cell-based
Conditions: read-out: ED50

Compound | CC50 at 72 h [µM]
CCCCOC(=O)CNC(=O)[C@H](CSc1ccc([N+](=O)[O-])cc1[N+](=O)[O-])NC(=O)CC[C@H](NC(=O)C(C)C)C(=O)OCCCC | > 300
CCCCOC(=O)CNC(=O)[C@H](CSc1ccc([N+](=O)[O-])cc1[N+](=O)[O-])NC(=O)CC[C@H](NC(=O)C(C)(C)C)C(=O)OCCCC | 83.4
CCCCOC(=O)CNC(=O)[C@H](CSc1ccc([N+](=O)[O-])cc1[N+](=O)[O-])NC(=O)CC[C@H](NC(=O)c1ccccc1)C(=O)OCCCC | > 300
CCCCOC(=O)CNC(=O)[C@H](CSc1ccc([N+](=O)[O-])cc1[N+](=O)[O-])NC(=O)CC[C@H](NC(=O)CCc1ccccc1)C(=O)OCCCC | > 300
CCCCOC(=O)CNC(=O)[C@H](CSc1ccc([N+](=O)[O-])cc1[N+](=O)[O-])NC(=O)CC[C@H](NC(=O)OC)C(=O)OCCCC | > 300
CCCCOC(=O)CNC(=O)[C@H](CSc1ccc([N+](=O)[O-])cc1[N+](=O)[O-])NC(=O)CC[C@H](NC(=O)OC12CC3CC(CC(C3)C1)C2)C(=O)OCCCC | > 300
CCCCOC(=O)CNC(=O)[C@H](CSc1ccc([N+](=O)[O-])cc1[N+](=O)[O-])NC(=O)CC[C@H](N)C(=O)OCCCC | 107
CCCCOC(=O)CNC(=O)[C@H](CSc1ccc([N+](=O)[O-])cc1[N+](=O)[O-])NC(=O)CC[C@H](NC(=O)OCc1ccccc1)C(=O)OCCCC | 95.2
CCCCOC(=O)CNC(=O)[C@H](CSc1ccc([N+](=O)[O-])cc1[N+](=O)[O-])NC(=O)CC[C@H](NC(=O)OC(C)(C)C)C(=O)OCCCC | 70.4
CCCCOC(=O)CNC(=O)[C@H](CSc1ccc([N+](=O)[O-])cc1[N+](=O)[O-])NC(=O)CC[C@H](NC(=O)CC(C)C)C(=O)OCCCC | 59.6

Organism: Mus musculus
Experiment: Cytotoxicity against CD1 mouse peritoneal macrophages assessed as induction of cell membrane lysis at 30 uM by optical microscopic method
Assay type: toxicity
Conditions: peritoneal macrophage

Compound | Activity
CCCCOC(=O)CNC(=O)[C@H](CSc1ccc([N+](=O)[O-])cc1[N+](=O)[O-])NC(=O)CC[C@H](N)C(=O)OCCCC | Toxic

System: Trypanosoma brucei brucei
Experiment: Antitrypanosomal activity against Trypanosoma brucei brucei S247 bloodstream forms assessed as immobility of parasite at 50 uM up to 1 min by optical microscopic method
Assay type: functional
Conditions: not given

Compound | Activity
COC(=O)CNC(=O)[C@H](CSCc1ccc(Br)cc1)NC(=O)CC[C@H](NC(=O)OCc1ccccc1)C(=O)OC | Active

System: not listed separately
Experiment: Selectivity index, ratio of ED50 for human KB cells to ED50 for Trypanosoma brucei rhodesiense STIB900 bloodstream trypomastigote forms
Assay type: toxicity, cell-based
Conditions: read-out: Ratio ED50

Compound | selectivity ratio
CCCCOC(=O)CNC(=O)[C@H](CSc1ccc([N+](=O)[O-])cc1[N+](=O)[O-])NC(=O)CC[C@H](NC(=O)C(C)C)C(=O)OCCCC | > 411
CCCCOC(=O)CNC(=O)[C@H](CSc1ccc([N+](=O)[O-])cc1[N+](=O)[O-])NC(=O)CC[C@H](NC(=O)C(C)(C)C)C(=O)OCCCC | 139
CCCCOC(=O)CNC(=O)[C@H](CSc1ccc([N+](=O)[O-])cc1[N+](=O)[O-])NC(=O)CC[C@H](NC(=O)c1ccccc1)C(=O)OCCCC | > 545
CCCCOC(=O)CNC(=O)[C@H](CSc1ccc([N+](=O)[O-])cc1[N+](=O)[O-])NC(=O)CC[C@H](NC(=O)CCc1ccccc1)C(=O)OCCCC | > 148
CCCCOC(=O)CNC(=O)[C@H](CSc1ccc([N+](=O)[O-])cc1[N+](=O)[O-])NC(=O)CC[C@H](NC(=O)OC)C(=O)OCCCC | > 139
CCCCOC(=O)CNC(=O)[C@H](CSc1ccc([N+](=O)[O-])cc1[N+](=O)[O-])NC(=O)CC[C@H](NC(=O)OC12CC3CC(CC(C3)C1)C2)C(=O)OCCCC | > 600
CCCCOC(=O)CNC(=O)[C@H](CSc1ccc([N+](=O)[O-])cc1[N+](=O)[O-])NC(=O)CC[C@H](N)C(=O)OCCCC | 57.1
CCCCOC(=O)CNC(=O)[C@H](CSc1ccc([N+](=O)[O-])cc1[N+](=O)[O-])NC(=O)CC[C@H](NC(=O)OCc1ccccc1)C(=O)OCCCC | 227
CCCCOC(=O)CNC(=O)[C@H](CSc1ccc([N+](=O)[O-])cc1[N+](=O)[O-])NC(=O)CC[C@H](NC(=O)OC(C)(C)C)C(=O)OCCCC | 320
CCCCOC(=O)CNC(=O)[C@H](CSc1ccc([N+](=O)[O-])cc1[N+](=O)[O-])NC(=O)CC[C@H](NC(=O)CC(C)C)C(=O)OCCCC | 51.4

System: Trypanosoma brucei rhodesiense
Experiment: Antitrypanosomal activity against Trypanosoma brucei rhodesiense STIB900 bloodstream trypomastigote forms measured on day 3 post treatment by alamar blue assay
Assay type: functional
Conditions: STIB900, 72 h, read-out: ED50 (the source's name)

Compound | EC50 [nM]
N[C@@H](CCC(=O)N[C@@H](CSc1ccc([N+](=O)[O-])cc1[N+](=O)[O-])C(=O)NCC(=O)O)C(=O)O | > 30000
CCCCOC(=O)CNC(=O)[C@H](CSc1ccc([N+](=O)[O-])cc1[N+](=O)[O-])NC(=O)CC[C@H](NC(=O)CCc1ccccc1)C(=O)OCCCC | 2020
CCCCOC(=O)CNC(=O)[C@H](CSc1ccc([N+](=O)[O-])cc1[N+](=O)[O-])NC(=O)CC[C@H](NC(=O)OC)C(=O)OCCCC | 2150

More lines, now with the values ahead:

EC50 [nM] | Compound
730 | CCCCOC(=O)CNC(=O)[C@H](CSc1ccc([N+](=O)[O-])cc1[N+](=O)[O-])NC(=O)CC[C@H](NC(=O)C(C)C)C(=O)OCCCC
600 | CCCCOC(=O)CNC(=O)[C@H](CSc1ccc([N+](=O)[O-])cc1[N+](=O)[O-])NC(=O)CC[C@H](NC(=O)C(C)(C)C)C(=O)OCCCC
550 | CCCCOC(=O)CNC(=O)[C@H](CSc1ccc([N+](=O)[O-])cc1[N+](=O)[O-])NC(=O)CC[C@H](NC(=O)c1ccccc1)C(=O)OCCCC
500 | CCCCOC(=O)CNC(=O)[C@H](CSc1ccc([N+](=O)[O-])cc1[N+](=O)[O-])NC(=O)CC[C@H](NC(=O)OC12CC3CC(CC(C3)C1)C2)C(=O)OCCCC
1880 | CCCCOC(=O)CNC(=O)[C@H](CSc1ccc([N+](=O)[O-])cc1[N+](=O)[O-])NC(=O)CC[C@H](N)C(=O)OCCCC
420 | CCCCOC(=O)CNC(=O)[C@H](CSc1ccc([N+](=O)[O-])cc1[N+](=O)[O-])NC(=O)CC[C@H](NC(=O)OCc1ccccc1)C(=O)OCCCC
220 | CCCCOC(=O)CNC(=O)[C@H](CSc1ccc([N+](=O)[O-])cc1[N+](=O)[O-])NC(=O)CC[C@H](NC(=O)OC(C)(C)C)C(=O)OCCCC
1160 | CCCCOC(=O)CNC(=O)[C@H](CSc1ccc([N+](=O)[O-])cc1[N+](=O)[O-])NC(=O)CC[C@H](NC(=O)CC(C)C)C(=O)OCCCC

System: not listed separately
Experiment: Drug release from Trypanosoma brucei brucei S247 bloodstream forms cell membrane at 50 uM after 120 mins in presence of 6 M urea by HPLC-UV method
Assay type: ADME, tissue-based
Conditions: blood, 2 h

Compound | Drug uptake [%]
COC(=O)CNC(=O)[C@H](CSCc1ccc(Br)cc1)NC(=O)CC[C@H](NC(=O)OCc1ccccc1)C(=O)OC | 80

System: Trypanosoma brucei brucei
Experiment: Antitrypanosomal activity against Trypanosoma brucei brucei S247 bloodstream forms assessed as swelling of parasite head at 50 uM after 5 mins by optical microscopic method
Assay type: functional
Conditions: not given

Compound | Activity
COC(=O)CNC(=O)[C@H](CSCc1ccc(Br)cc1)NC(=O)CC[C@H](NC(=O)OCc1ccccc1)C(=O)OC | Active

System: not listed separately
Experiment: Drug uptake in Trypanosoma brucei brucei S247 bloodstream forms at 50 uM after 5 mins by HPLC-UV method
Assay type: ADME
Conditions: not given

Compound | Drug uptake
COC(=O)CNC(=O)[C@H](CSCc1ccc(Br)cc1)NC(=O)CC[C@H](NC(=O)OCc1ccccc1)C(=O)OC | Active

System: Trypanosoma cruzi
Experiment: Antitrypanosomal activity against Trypanosoma cruzi MHOM/BR/OO/Y trypomastigotes infected in CD1 mouse peritoneal macrophages after 3 days
Assay type: functional
Conditions: 72 h, read-out: ED50 (the source's name)

Compound | EC50 [µM]
N[C@@H](CCC(=O)N[C@@H](CSc1ccc([N+](=O)[O-])cc1[N+](=O)[O-])C(=O)NCC(=O)O)C(=O)O | > 30
CCCCOC(=O)CNC(=O)[C@H](CSc1ccc([N+](=O)[O-])cc1[N+](=O)[O-])NC(=O)CC[C@H](NC(=O)CCc1ccccc1)C(=O)OCCCC | > 30
CCCCOC(=O)CNC(=O)[C@H](CSc1ccc([N+](=O)[O-])cc1[N+](=O)[O-])NC(=O)CC[C@H](NC(=O)OC)C(=O)OCCCC | 30.4

Next, values leading:

EC50 [µM] | Compound
30.8 | CCCCOC(=O)CNC(=O)[C@H](CSc1ccc([N+](=O)[O-])cc1[N+](=O)[O-])NC(=O)CC[C@H](NC(=O)C(C)C)C(=O)OCCCC
8.4 | CCCCOC(=O)CNC(=O)[C@H](CSc1ccc([N+](=O)[O-])cc1[N+](=O)[O-])NC(=O)CC[C@H](NC(=O)C(C)(C)C)C(=O)OCCCC
22.9 | CCCCOC(=O)CNC(=O)[C@H](CSc1ccc([N+](=O)[O-])cc1[N+](=O)[O-])NC(=O)CC[C@H](NC(=O)c1ccccc1)C(=O)OCCCC
4.5 | CCCCOC(=O)CNC(=O)[C@H](CSc1ccc([N+](=O)[O-])cc1[N+](=O)[O-])NC(=O)CC[C@H](NC(=O)OC12CC3CC(CC(C3)C1)C2)C(=O)OCCCC
16.5 | CCCCOC(=O)CNC(=O)[C@H](CSc1ccc([N+](=O)[O-])cc1[N+](=O)[O-])NC(=O)CC[C@H](NC(=O)OC(C)(C)C)C(=O)OCCCC
> 30 | CCCCOC(=O)CNC(=O)[C@H](CSc1ccc([N+](=O)[O-])cc1[N+](=O)[O-])NC(=O)CC[C@H](NC(=O)CC(C)C)C(=O)OCCCC

System: not listed separately
Experiment: Drug release fromTrypanosoma brucei brucei S247 bloodstream forms cell membrane at 50 uM after 120 mins in presence of 1 M NaCl by HPLC-UV method
Assay type: ADME
Conditions: trypanosoma brucei brucei, 2 h

Compound | Drug uptake [%]
COC(=O)CNC(=O)[C@H](CSCc1ccc(Br)cc1)NC(=O)CC[C@H](NC(=O)OCc1ccccc1)C(=O)OC | 76
